Source: article PMC9532399, “The lysosomal transporter TAPL has a dual role as peptide translocator and phosphatidylserine floppase” (Nature Communications, 2022)

Legend:
Format in all cases: biochemical
mouse TAPL ΔTMD0 [1] = molecular target: T1, mouse TAPL ΔTMD0 (Mus musculus, UniProt Q9JJ59); assay: Dithionite-based flip-flop (floppase) assay of NBD*-labeled lipids, ΔTMD0 proteoliposomes; conditions: NBD*-labeled lipid; PE, PG, PC and cholesterol data not shown
T1 construct: thrombin cleavage site (C); eGFP (C); 10XHis (C); made in house; host or cells: Trichoplusia ni High Five (Hi5) insect cells, baculovirus (pVL1393)
T1 sequence (Q9JJ59 143-762): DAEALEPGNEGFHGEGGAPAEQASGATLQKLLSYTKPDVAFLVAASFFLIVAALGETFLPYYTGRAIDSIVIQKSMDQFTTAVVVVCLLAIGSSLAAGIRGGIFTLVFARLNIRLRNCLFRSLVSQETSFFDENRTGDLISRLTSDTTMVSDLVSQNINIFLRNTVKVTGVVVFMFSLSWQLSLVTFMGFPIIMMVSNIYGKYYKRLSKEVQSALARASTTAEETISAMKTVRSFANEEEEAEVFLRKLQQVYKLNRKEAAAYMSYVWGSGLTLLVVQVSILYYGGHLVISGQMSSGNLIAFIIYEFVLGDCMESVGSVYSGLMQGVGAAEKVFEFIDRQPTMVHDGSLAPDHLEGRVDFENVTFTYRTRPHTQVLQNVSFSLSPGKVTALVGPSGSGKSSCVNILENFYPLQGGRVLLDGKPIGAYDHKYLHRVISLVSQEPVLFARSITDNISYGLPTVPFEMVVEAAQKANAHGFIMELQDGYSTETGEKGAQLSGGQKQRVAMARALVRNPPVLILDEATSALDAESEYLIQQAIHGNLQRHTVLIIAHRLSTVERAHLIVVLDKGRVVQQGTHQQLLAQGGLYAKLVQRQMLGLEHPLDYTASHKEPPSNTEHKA
Method: All lipids used in reconstitution were purchased from Avanti Polar Lipids, Inc. (purity > 99%). The in vitro flip–flop assay was performed using NBD* dye-labeled proteoliposomes as described previously. Briefly, E. coli polar lipids and egg PC were mixed in a 1:1 molar ratio, and 0.5% (mol/mol) NBD*-lipid was added. The lipid mixture was then dried under nitrogen gas. The NBD*-lipids used were 18:1-06:0 NBD*-PS (1-oleoyl-2-{6-[(7-nitro-2-1,3-benzoxadiazol-4-yl)amino]hexanoyl}-sn-glycero-3-phosphoserine), 18:1-06:0 NBD*-PC (1-oleoyl-2-{6-[(7-nitro-2-1,3-benzoxadiazol-4-yl)amino]hexanoyl}-sn-glycero-3-phosphocholine), 18:1-06:0 NBD*-PG (1-oleoyl-2-{6-[(7-nitro-2-1,3-benzoxadiazol-4-yl)amino]hexanoyl}-sn-glycero-3-[phospho-rac-(1-glycerol)]), 18:1-06:0 NBD*-PE (1-oleoyl-2-{6-[(7-nitro-2-1,3-benzoxadiazol-4-yl)amino]hexanoyl}-sn-glycero-3-phosphoethanolamine), and 25-NBD*-Cholesterol (25-[N-[(7-nitro-2-1,3-benzoxadiazol-4-yl)methyl]amino]−27-norcholesterol). Thin lipid films were solubilized in 20 mM HEPES–NaOH pH 8.0, 200 mM NaCl and 5% (v/v) glycerol, incubated at RT for 30 min and subjected to 5 freeze–thaw cycles. After extrusion with a Mini-Extruder at 65 °C, final lipid concentrations were determined by phosphorus assays. Briefly, 10 μL of extruded lipid was added to 10 μL of 2% (w/v) ammonium molybdate and 300 μL of concentrated perchloric acid. The mixture was heated at 250 °C for 30 min, then cooled to RT and mixed with 1.5 mL of 0.4% (w/v) ammonium molybdate and 250 μL of 9% (w/v) L-ascorbic acid. It was again heated at 100 °C for 6 min and cooled to RT. Lipid concentrations were calculated from the absorbance at 820 nm using a standard curve prepared with NaH2PO4 solution. After accurately determining the lipid concentration, DM-purified protein and 5 mM lipid suspension (solubilized in 5 mM DM) were mixed 1:25 (w/w). After incubation at 4 °C for 1.5 h, DM detergent was removed with 75 mg Bio-beads SM-2 by periodic gentle shaking for 1 h at 4 °C (Supplementary Fig. 5a). The beads were replaced once, followed by an additional incubation at 4 °C for 2 h to completely remove detergent. The resulting proteoliposomes were collected by ultracentrifugation at 200,000×g for 1.5 h at 4 °C.
To measure the flip–flop activity, 10 μL of 2 mM NBD*-labeled proteoliposomes were added to 100 μL of reaction buffer (20 mM HEPES–NaOH pH 8.0, 200 mM NaCl, 5 mM ATP and 5% (v/v) glycerol) in the presence of 2 mM MgCl2 (or NaCl), and incubated at 37 °C for 1 h. The mixture was transferred to a 96-well plate and time-dependent fluorescence (λex/λem = 460/538 nm) was recorded every 30 s for 26 min using a fluorescence spectrophotometer (Gemini XPS). After the baseline fluorescence had stabilized, 10 mM sodium dithionite was added to quench the fluorescence of NBD*-lipid present in the outer leaflets of the liposomes. The initial rapid drop and subsequent slow decline in fluorescence intensity were monitored. When a new steady state was established, 1% (v/v) Triton X-100 was added to completely disrupt the liposomes. The net percentage of NBD*-lipid translocated across the lipid bilayer was calculated from the following equation[72]: the percentage of protected NBD*-lipid in the inner leaflet = [(FD−F0)/(FT−F0)]×100, and that of accessible NBD*-lipid in the outer leaflet = [(FT−FD)/(FT−F0)]×100, where FT is the total fluorescence of the sample before the addition of dithionite, FD is the fluorescence of the sample after quenching with dithionite, and F0 is any residual fluorescence of the sample after solubilization with Triton X-100. Fluorescence values (FT, FD, F0) were calculated as the averages of 5 points on the respective plateau lines. The ΔTMD0-mediated lipid floppase activity was determined by subtracting the percentage of NBD*-lipid fluorescence measured in the presence of Na^+/ATP from that measured in the presence of Mg^2+/ATP.

mouse TAPL ΔTMD0 [2] = molecular target: T1, mouse TAPL ΔTMD0; assay: Lipid-stimulated ATPase assay, DM-purified ΔTMD0; conditions: lipid stimulation, 3 mM ATP
Method: (§1) The ATPase activities of proteins obtained after various purification procedures were determined by NADH-coupled spectrophotometric assays. 10 μg of DM-purified or nanodisc-reconstituted protein was added to 140 μL of reaction buffer containing 50 mM HEPES–KOH pH 8.0, 60 μg/mL pyruvate kinase (Roche), 16 μg/mL lactate dehydrogenase (Roche), 10 mM phosphoenolpyruvate (Roche), 0.3 mM NADH, 3 mM ATP, 10 mM MgCl2, and 0.17% (w/v) DM in the presence or absence of 250 μM peptide. For proteins reconstituted into nanodiscs, DM was not added to the reaction buffer. For lipid-stimulated ATPase assays, the thin film of lipids was hydrated in 100 μL of buffer containing 50 mM HEPES–KOH pH 8.0 and 10 mM MgCl2 to yield a 10 mM solution. After sonication of the lipid solution for 10 min to decrease its turbidity, the reaction was initiated by adding varying concentrations of lipids to the mixture. ATP hydrolysis activity was monitored at 37 °C for 3 min by measuring the rate of decline of NADH absorbance at 340 nm. To inhibit ATP hydrolysis, the reaction mixture was incubated with 3 mM AMP-PNP or 8 mM NaF/2 mM BeSO4 for 5 min at RT. The kinetic parameters of ATP hydrolysis were calculated by fitting the initial rates of ATP hydrolysis to the Michaelis–Menten equation using PRISM 4.0 (GraphPad software).

mouse TAPL ΔTMD0 [3] = molecular target: T1, mouse TAPL ΔTMD0; assay: NADH-coupled ATPase assay, DM-purified ΔTMD0; conditions: for ATP hydrolysis in presence of ATP analogs: in the presence of 9-mer peptide
Method: as §1

mouse TAPL ΔTMD0 [4] = molecular target: T1, mouse TAPL ΔTMD0; assay: Peptide transport assay, ΔTMD0 proteoliposomes; conditions: for reduction of peptide transport: 5-IAF-labeled peptide, ATP-dependent, relative to 9-mer; for Transport activity: peptide 10 mM (sic), + 3 mM ATP
Method: Proteoliposomes for peptide transport assays were prepared according to the protocol of Zhao et al., with some modifications. Briefly, E. coli polar lipid extract dissolved in chloroform was dried under a gentle stream of nitrogen. The thin film of lipids was placed under a desiccator overnight to completely remove residual chloroform and then hydrated in 1X PBS buffer pH 7.4 (137 mM NaCl, 2.7 mM KCl, 8 mM Na2HPO4, and 2 mM KH2PO4) with 10 mM MgCl2 and 5% (v/v) glycerol. After water bath sonication at 22 °C for 5 min (Powersonic 610, KLEENTEK), the lipid solution was extruded using a Mini-Extruder equipped with a polycarbonate membrane filter (200 nm pore) (Avanti Polar Lipids, Inc.) to obtain unilamellar vesicles, which were destabilized with 0.36% (w/v) DM. The DM-purified protein and lipid suspension were mixed in a 1:50 (w/w) ratio. After incubation at 4 °C for 2 h, the mixture was treated with Bio-Beads SM-2 resin (60 and 120 mg, see above) at 4 °C for a total of 18 h to remove detergent. The proteoliposomes were collected by centrifugation at 200,000×g for 1.5 h at 4 °C and resuspended in the buffer described above.
The peptide transport activity of ΔTMD0 was measured as described previously. Briefly, 50 μL of ΔTMD0-loaded proteoliposomes (~0.6 μg protein) were added into 200 μL reaction buffer containing 1X PBS pH 7.4, 3 mM ATP, and 10 mM MgCl2 in the presence or absence of 10 μM 5-IAF-labeled peptides. To investigate transport activity, the mixture was incubated at 37 °C for 10 min. The reaction was terminated by incubating the mixture for 20 min on ice. Proteoliposomes were collected by centrifugation at 200,000×g for 30 min and then washed twice with 1X PBS. The proteoliposomes were completely disrupted by adding 10% (w/v) SDS solution (final concentration, 2%). The transported peptide was measured using a microplate reader (Gemini XPS) with excitation at 485 nm and emission at 520 nm.

[5] = 9-mer + ATP set at 100%, 37 °C 10 min, mean n=3

## CCCCCCCC/C=C\CCCCCCCC(=O)OC[C@H](COP(=O)(O)OCC(O)CO)OC(=O)CCCCCNc1ccc([N+](=O)[O-])c2nonc12 (mixture of isomers) [NBD*-PG, 1-oleoyl-2-{6-[(7-nitro-2-1,3-benzoxadiazol-4-yl)amino]hexanoyl}-sn-glycero-3-[phospho-rac-(1-glycerol)]]
Mouse TAPL ΔTMD0 [1]
  ATP-dependent lipid transport by ΔTMD0: very low

## CCCCCCCC/C=C\CCCCCCCC(=O)O[C@H](COC(=O)CCCCCCCCCCCCCCC)COP(=O)(O)OCC(O)CO (mixture of isomers) [POPG, 1-palmitoyl-2-oleoyl-sn-glycero-3-phospho-(1’-rac-glycerol)]
Mouse TAPL ΔTMD0 [2]
  maximal ATPase activity (turnover): 155 min⁻¹
Mouse TAPL ΔTMD0 [2]; means ± SEM
  Km: 105 ± 16 µM
  maximal ATPase activity (Vmax): 1147 ± 41 nmol/mg/min

## Nc1ncnc2c1ncn2[C@@H]1O[C@H](COP(=O)(O)OP(=O)(O)NP(=O)(O)O)[C@@H](O)[C@H]1O [AMP-PNP]
Mouse TAPL ΔTMD0 [3]
  ATP hydrolysis in presence of ATP analogs: prevented ATP hydrolysis

## Nc1ncnc2c1ncn2[C@@H]1O[C@H](COP(=O)(O)OP(=O)(O)OP(=O)(O)O)[C@@H](O)[C@H]1O [ATP]
Mouse TAPL ΔTMD0 [3]; basal ATPase activity, DM-purified ΔTMD0
  Vmax: 394 ± 10 nmol/mg/min
Mouse TAPL ΔTMD0 [3]; basal ATPase activity, DM-purified ΔTMD0, read-out: Km for ATP
  Km: 497 ± 61 µM

## CCCCCCCC/C=C\CCCCCCCC(=O)OC[C@H](COP(=O)([O-])OCC[N+](C)(C)C)OC(=O)CCCCCNc1ccc([N+](=O)[O-])c2nonc12 [NBD*-PC, 1-oleoyl-2-{6-[(7-nitro-2-1,3-benzoxadiazol-4-yl)amino]hexanoyl}-sn-glycero-3-phosphocholine]
Mouse TAPL ΔTMD0 [1]
  ATP-dependent lipid transport by ΔTMD0: very low

## CCCCCCCC/C=C\CCCCCCCC(=O)OC[C@H](COP(=O)(O)OCCN)OC(=O)CCCCCNc1ccc([N+](=O)[O-])c2nonc12 [NBD*-PE, 1-oleoyl-2-{6-[(7-nitro-2-1,3-benzoxadiazol-4-yl)amino]hexanoyl}-sn-glycero-3-phosphoethanolamine]
Mouse TAPL ΔTMD0 [1]
  ATP-dependent lipid transport by ΔTMD0: very low

## CC(CCC[C@@H](C)[C@@H]1CC[C@H]2[C@@H]3CC=C4C[C@@H](O)CC[C@]4(C)[C@H]3CC[C@@]21C)N(C)c1ccc([N+](=O)[O-])c2nonc12 (some centres unmarked) [NBD*-cholesterol, 25-[N-[(7-nitro-2-1,3-benzoxadiazol-4-yl)methyl]amino]−27-norcholesterol]
Mouse TAPL ΔTMD0 [1]
  ATP-dependent lipid transport by ΔTMD0: failed to detect ΔTMD0-mediated translocation

## CCCCCCCC/C=C\CCCCCCCC(=O)OC(COC(=O)CCCCCCCCCCCCCCC)COP(=O)([O-])OCC[N+](C)(C)C (centres unmarked) [POPC, 1-palmitoyl-2-oleoyl-glycero-3-phosphocholine]
Mouse TAPL ΔTMD0 [2]
  maximal ATPase activity (turnover): 88 min⁻¹
Mouse TAPL ΔTMD0 [2]; means ± SEM
  maximal ATPase activity (Vmax): 649 ± 35 nmol/mg/min

## ADP·BeF3
Mouse TAPL ΔTMD0 [3]
  ATP hydrolysis in presence of ATP analogs: prevented ATP hydrolysis

## RRYQNSTELRRYQNSTC^5-IAFL [18-mer, 5-IAF-labeled 18-mer peptide]
Mouse TAPL ΔTMD0 [4]
  reduction of peptide transport: 90%
Mouse TAPL ΔTMD0 [4]; [5]
  Transport activity: 10.0006%
Mouse TAPL ΔTMD0 [4]; replicate I
  Transport activity: 11.6836%
Mouse TAPL ΔTMD0 [4]; replicate II
  Transport activity: 10.1438%
Mouse TAPL ΔTMD0 [4]; replicate III
  Transport activity: 8.174%

## RRYQNSTELRRYQNSTELNSTC^5-IAFL [23-mer, 5-IAF-labeled 23-mer peptide]
Mouse TAPL ΔTMD0 [4]
  reduction of peptide transport: 80%
Mouse TAPL ΔTMD0 [4]; [5]
  Transport activity: 20.2607%
Mouse TAPL ΔTMD0 [4]; replicate I
  Transport activity: 20.4488%
Mouse TAPL ΔTMD0 [4]; replicate II
  Transport activity: 15.9535%
Mouse TAPL ΔTMD0 [4]; replicate III
  Transport activity: 24.3798%
